Source: patent US5747504A, “Method of treating cardiac insufficiency using angiotensin-converting enzyme inhibitors” (priority 1984, dated 1998)

How the values were obtained:
Format in all cases: in vivo
ACE in the heart = assay: Inhibition of ACE in the heart after oral treatment of spontaneously hypertensive rats
Description: It is known that converting enzyme inhibitors are capable of inhibiting the enzyme not only in the serum but also in various tissues, and especially also in the heart.
In contrast, with 30 mg/kg of N-(1-carbethoxy-3-phenyl-propyl)-S-alanyl-S-proline (enalapril) perorally, already no further significant inhibition is observed after more than 6 hours.

isolated heart [1] = assay: Effect of angiotensin I and bradykinin on coronary blood flow in the isolated heart after oral pretreatment; details: isolated heart of rabbits, guineapigs and rats
Description: Angiotensin I decreases whilst bradykinin increases the coronary blood flow in the isolated heart of rabbits, guineapigs and rats. […] The same effect can only be achieved with 30 mg/kg of enalapril.

isolated heart [2] = assay: Postganglionic sympathetic stimulation on the isolated heart after oral pretreatment; details: oral pretreatment with 1 mg/kg perorally, rabbits
From the text: Postganglionic sympathetic stimulation on the isolated heart leads, via increased catecholamine release, to an increase in heart rate and contractility and to a decrease in coronary blood flow. […] These effects act together to protect the incompetent heart.

[3] = oral pretreatment with 1 mg/kg perorally

## CCOC(=O)[C@H](CCc1ccccc1)N[C@@H](C)C(=O)N1CCC[C@H]1C(=O)O [enalapril, N-(1-carbethoxy-3-phenyl-propyl)-S-alanyl-S-proline, reference compound]
ACE in the heart; 30 mg/kg perorally
  duration of significant inhibition of the ACE in the heart: ≤ 6 h
ACE in the heart; chronic oral treatment for two weeks with 30 mg/kg perorally
  inhibition of the ACE in the heart at the end of treatment: no inhibition is observed
Isolated heart [1]; 30 mg/kg
  action of bradykinin on coronary blood flow: same effect
  effect of angiotensin I on coronary blood flow: same effect

## CCOC(=O)[C@H](CCc1ccccc1)N[C@@H](C)C(=O)N1[C@H](C(=O)O)C[C@@H]2CCC[C@@H]21 [compound of the formula II, N-(1-S-carbethoxy-3-phenyl-propyl)-S-alanyl-cis-endo-2-azabicyclo[3,3,0]octane-3-S-carboxylic acid]
ACE in the heart; chronic oral treatment for two weeks with 1 mg/kg
  inhibition of the ACE in the heart at the end of treatment: 55%
ACE in the heart; single oral dose of 1 mg/kg
  duration of significant inhibition of the ACE in the heart: > 24 h
Isolated heart [2]
  influence of postganglionic sympathetic stimulation on contractility: unaffected
  influence of postganglionic sympathetic stimulation on coronary blood flow: significantly reduces
  influence of postganglionic sympathetic stimulation on heart rate: significantly reduces
Isolated heart [1]; [3]
  action of bradykinin on coronary blood flow: increases
  effect of angiotensin I on coronary blood flow: significantly reduces
